This note sets out measurements from paper PMC9574867, “Discovery and Characterization of Synthesized and FDA-Approved Inhibitors of Clostridial and Bacillary Collagenases” (Journal of Medicinal Chemistry, 2022).

Data set [1] is described as follows: in vitro. The note with it: dog, MDCK II cells (Madin–Darby canine kidney II).
For data set [2], the system named is MDCK II cells infected with B. cereus AH187. It is filed as cell-based, canine.
Data set [3] concerns NHDF cells infected with B. cereus. The data set is described as follows: NHDF infection model, cell morphology/attachment and fibrillar collagen (picrosirius red). The format is cell-based, human. The settings on record: B. cereus infection, 5 h.
For data set [4], the target named is T1, HDAC-8 (Homo sapiens, UniProt Q9BY41).
T1 sequence (Q9BY41 1-377): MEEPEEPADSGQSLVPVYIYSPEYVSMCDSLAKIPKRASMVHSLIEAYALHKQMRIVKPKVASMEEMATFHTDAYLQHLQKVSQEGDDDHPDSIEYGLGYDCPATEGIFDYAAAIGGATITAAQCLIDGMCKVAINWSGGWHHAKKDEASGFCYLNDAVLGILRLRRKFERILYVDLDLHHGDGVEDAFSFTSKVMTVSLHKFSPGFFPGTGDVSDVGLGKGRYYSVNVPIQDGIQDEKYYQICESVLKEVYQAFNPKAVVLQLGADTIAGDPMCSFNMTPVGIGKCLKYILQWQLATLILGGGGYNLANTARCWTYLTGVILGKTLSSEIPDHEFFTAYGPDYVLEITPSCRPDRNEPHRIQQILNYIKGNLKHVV
In words: Human off-target inhibition, HDAC-8. The format is biochemical. The protocol:
(§1) To assess the selectivity of the compounds over human MMPs and on other bacterial collagenases, selected compounds were tested against ColG-CU and ColH-PD from C. histolyticum and ColA-CU from B. cereus strain ATCC14579. In addition, the compounds were tested on catalytic domains of three human MMPs, which are characterized by different depths of the S1′ binding pocket (MMP-1 (shallow), −2 (intermediate), and −3 (deep)). They were also tested against other important human off-targets, which are involved in gene expression and the processing of TNF-α; these include HDAC-3, -8, TACE (ADAM-17),[33],[34] and COX-1.

The target of data set [5] is ColA-CU (Bacillus cereus, UniProt Q81BJ6). The data set is described as follows: biochemical. The format is biochemical, B. cereus strain ATCC14579. The settings on record: 100 μM; read-out: Percent inhibition of ColA-CU.
The target of data set [6] is T2, MMP-1 (Homo sapiens, UniProt P03956).
T2 construct: catalytic domains of three human MMPs; purchased Sigma-Aldrich
T2 sequence (P03956 98-276 limits assumed): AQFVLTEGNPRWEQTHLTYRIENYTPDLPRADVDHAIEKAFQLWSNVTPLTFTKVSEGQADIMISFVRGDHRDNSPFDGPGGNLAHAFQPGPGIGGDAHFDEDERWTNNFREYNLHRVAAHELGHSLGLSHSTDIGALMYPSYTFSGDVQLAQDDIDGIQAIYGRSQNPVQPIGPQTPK
In words: MMP inhibition assay, MMP-1. It is filed as biochemical. The method, then:
as §1
The MMP inhibition assay (Sigma-Aldrich, Saint Louise, MO) was performed as previously reported and in accordance with the manufacturer’s instructions. The fluorescence signals were measured in a CLARIOstar plate reader (BMG LABTECH, Ortenberg, Germany) at a concentration of 100 μM.

In data set [7] the test system is B. cereus collagenases released in the NHDF infection model. It is filed as cell-based, B. cereus AH187.
The subject of data set [8] is NHDF cells infected with B. cereus. In words: NHDF infection model, LDH release. It is filed as cell-based, human. The note with it: 5 h. The protocol: We further evaluated the effect of the diphosphonate and hydroxamate compounds on cell morphology, the fibrillar collagen content of the ECM, and cell viability in the infection model. […] Above a concentration of 25 μM, they were both able to sustain the cells during infection. The cells stayed attached and maintained their spindle shape (Figures S7 and S8), and above 50 μM, we observed a significant reduction in LDH release, indicating higher cell viability.
NHDF cells (1 × 10^5, Promo Cell C-12302) per well were seeded in 24-well plates (Greiner) with DMEM medium (Gibco) containing 10% (v/v) fetal calf serum (FCS, Gibco) and 1% (v/v) glutamine (Gibco). Prior to the treatment, the cells were cultured at 37 °C for 24 h with 5% CO2. In brain heart infusion (BHI) medium, B. cereus AH187 bacteria were cultivated to a mid-exponential phase. The culture was centrifuged at 4000g for 7 min at RT before being rinsed and diluted in PBS. […] The cell morphology was monitored with a light microscope (Olympus) using a 20X objective. […]
The manufacturer’s procedure was followed to measure the released LDH amount in the supernatant of NHDF cells. […] The absorbance was measured at 490 nm with a Tecan Infinite M200 plate reader (Tecan, Grödig, Austria). The cytotoxicity was calculated relative to the control (no inhibitor).

For data set [9], the target named is HDAC-3 (Homo sapiens, UniProt O15379). The data set is described as follows: Human off-target inhibition, HDAC-3. It is filed as biochemical. The protocol:
as §1

For data set [10], the target named is ColQ1-FL (Bacillus cereus, UniProt B9J3S4). It is filed as biochemical. The settings on record: SDS-PAGE.
Data set [11] concerns the target COX-1 (Homo sapiens, UniProt P23219). In words: Human off-target inhibition, COX-1. The format is biochemical. The method, then:
as §1

A short description of data set [12]: in vitro. The settings on record: human, HEK293 cells (embryonal kidney).
Data set [13] is described as follows: in vitro. The settings on record: human, HepG2 cells (hepatocellular carcinoma).

Chain of HDAC-3 (O15379 whole entry): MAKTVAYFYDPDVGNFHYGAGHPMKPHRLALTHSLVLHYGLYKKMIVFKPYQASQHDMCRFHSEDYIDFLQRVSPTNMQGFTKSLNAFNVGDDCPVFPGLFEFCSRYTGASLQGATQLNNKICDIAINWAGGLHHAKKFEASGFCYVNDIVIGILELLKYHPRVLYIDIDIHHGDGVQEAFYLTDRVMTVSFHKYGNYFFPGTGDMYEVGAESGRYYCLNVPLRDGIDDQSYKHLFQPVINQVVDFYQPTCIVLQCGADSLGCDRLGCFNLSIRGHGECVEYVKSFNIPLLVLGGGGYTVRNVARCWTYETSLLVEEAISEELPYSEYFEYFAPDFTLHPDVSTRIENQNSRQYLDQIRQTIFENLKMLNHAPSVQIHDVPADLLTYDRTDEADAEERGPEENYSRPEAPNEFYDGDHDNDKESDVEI
Chain of HDAC-3 (Q9Y618 395-489 partner limits assumed): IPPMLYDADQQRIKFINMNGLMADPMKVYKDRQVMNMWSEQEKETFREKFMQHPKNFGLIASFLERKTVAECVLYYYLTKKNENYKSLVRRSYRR
Chain of COX-1 (P23219 24-599): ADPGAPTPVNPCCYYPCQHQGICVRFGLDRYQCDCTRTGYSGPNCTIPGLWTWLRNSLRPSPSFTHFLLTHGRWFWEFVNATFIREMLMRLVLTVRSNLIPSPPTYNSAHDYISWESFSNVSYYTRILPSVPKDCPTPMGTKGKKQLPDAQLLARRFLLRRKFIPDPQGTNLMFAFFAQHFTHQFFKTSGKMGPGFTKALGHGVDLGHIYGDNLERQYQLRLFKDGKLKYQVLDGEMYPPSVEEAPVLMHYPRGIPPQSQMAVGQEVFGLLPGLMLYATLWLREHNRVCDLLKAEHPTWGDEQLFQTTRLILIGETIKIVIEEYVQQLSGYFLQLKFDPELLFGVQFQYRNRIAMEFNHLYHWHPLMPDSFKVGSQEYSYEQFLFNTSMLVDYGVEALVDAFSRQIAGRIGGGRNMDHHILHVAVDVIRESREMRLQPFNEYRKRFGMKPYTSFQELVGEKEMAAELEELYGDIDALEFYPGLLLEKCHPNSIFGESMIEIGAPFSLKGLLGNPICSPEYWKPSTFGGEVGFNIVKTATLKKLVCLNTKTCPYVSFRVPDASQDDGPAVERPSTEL
Chain of ColA-CU (Q81BJ6 93-764): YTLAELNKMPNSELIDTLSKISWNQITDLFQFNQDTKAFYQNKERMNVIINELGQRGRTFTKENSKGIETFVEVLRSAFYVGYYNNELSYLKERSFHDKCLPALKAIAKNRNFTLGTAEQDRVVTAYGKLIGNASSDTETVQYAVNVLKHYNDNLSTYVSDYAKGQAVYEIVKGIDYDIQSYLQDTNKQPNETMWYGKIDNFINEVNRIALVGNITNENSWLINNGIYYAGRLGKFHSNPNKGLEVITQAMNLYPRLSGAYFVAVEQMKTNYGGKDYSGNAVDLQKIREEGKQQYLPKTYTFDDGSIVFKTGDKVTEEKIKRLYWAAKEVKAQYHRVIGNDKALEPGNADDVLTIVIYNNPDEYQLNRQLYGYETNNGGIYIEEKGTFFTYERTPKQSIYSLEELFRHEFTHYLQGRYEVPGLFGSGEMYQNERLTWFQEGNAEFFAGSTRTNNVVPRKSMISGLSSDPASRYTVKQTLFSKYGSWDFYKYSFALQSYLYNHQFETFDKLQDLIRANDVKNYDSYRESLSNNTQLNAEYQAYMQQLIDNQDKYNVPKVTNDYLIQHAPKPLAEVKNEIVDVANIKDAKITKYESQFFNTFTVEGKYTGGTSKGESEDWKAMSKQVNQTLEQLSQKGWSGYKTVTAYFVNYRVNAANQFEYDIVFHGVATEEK
Chain of ColQ1-FL (B9J3S4 94-965 limits assumed): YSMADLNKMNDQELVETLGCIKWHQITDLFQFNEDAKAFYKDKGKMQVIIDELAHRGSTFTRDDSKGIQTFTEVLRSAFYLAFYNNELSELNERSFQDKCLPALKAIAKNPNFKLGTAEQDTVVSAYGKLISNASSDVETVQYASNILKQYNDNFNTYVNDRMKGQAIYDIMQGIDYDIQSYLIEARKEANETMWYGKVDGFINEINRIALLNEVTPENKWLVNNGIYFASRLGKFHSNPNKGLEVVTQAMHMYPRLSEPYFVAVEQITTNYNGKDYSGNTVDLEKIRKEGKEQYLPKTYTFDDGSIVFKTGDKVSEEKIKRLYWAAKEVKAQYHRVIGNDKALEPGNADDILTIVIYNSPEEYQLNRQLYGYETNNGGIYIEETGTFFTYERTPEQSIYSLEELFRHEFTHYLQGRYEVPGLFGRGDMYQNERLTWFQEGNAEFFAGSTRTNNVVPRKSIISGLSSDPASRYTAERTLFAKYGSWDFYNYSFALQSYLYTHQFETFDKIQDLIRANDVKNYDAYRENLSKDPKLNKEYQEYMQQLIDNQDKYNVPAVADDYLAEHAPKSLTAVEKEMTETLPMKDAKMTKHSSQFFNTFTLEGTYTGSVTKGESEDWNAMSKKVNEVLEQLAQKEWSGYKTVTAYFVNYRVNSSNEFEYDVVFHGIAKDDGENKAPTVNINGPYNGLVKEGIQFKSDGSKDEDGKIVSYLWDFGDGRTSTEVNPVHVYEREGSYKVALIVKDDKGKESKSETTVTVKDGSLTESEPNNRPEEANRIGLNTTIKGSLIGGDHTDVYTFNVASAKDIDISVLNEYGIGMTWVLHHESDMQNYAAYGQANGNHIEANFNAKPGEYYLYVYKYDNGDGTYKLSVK

As to `O=P(O)(O)c1nc2cc(Cl)c(Cl)cc2nc1P(=O)(O)O` [Compound 13, (6,7-Dichloroquinoxaline-2,3-diyl)bis(phosphonic acid)], the IC50 is over 200 µM in [1]; over 100 µM in data set [4]; 53 ± 3 µM in [6]; over 100 µM in [9]; over 100 µM in data set [11]; 100 µM in [12]. The compound also came in with an IC50 in [13] of over 100 µM. Also, the “TEER of infected MDCK II cells” value in data set [2] is “failed to sustain the TEER of the infected cells”. Also, in data set [3], the “Concentration above which infected cells were sustained (attached, spindle shape)” value is over 25 µM. Also, the inhibition at 100 µM in data set [5] turned out to be 71 ± 4%. The “Concentration giving complete inhibition of gelatinolytic activity” value in [7] amounted to 200 µM. For the same compound, in data set [8], the “Concentration above which LDH release was significantly reduced” value is on record as “above 50 μM”. The “Concentration above which Col I chains were maintained” value in data set [10] (1 mg/mL Col I, 50 ng ColQ1-FL) is recorded as “above 3 μM”.
Turning to `O=C(Nc1ccc(Cl)c(Cl)c1)c1ccc2nc(P(=O)(O)O)c(P(=O)(O)O)nc2c1` [Compound 14, (6-((3,4-Dichlorophenyl)carbamoyl)quinoxaline-2,3-diyl)bis(phosphonic acid)], the IC50 in data set [1], in data set [4], in [6], in data set [9], in data set [11] and in data set [12] was over 100 µM each time. The same compound showed an IC50 in data set [13] of over 100 µM. The “TEER of infected MDCK II cells” value in [2] is listed as “preserve the TEER value”. The “Concentration above which infected cells were sustained (attached, spindle shape)” value in data set [3] was over 25 µM. Moreover, the inhibition at 100 µM in data set [5] worked out at 82 ± 2%. Further, the “Concentration giving complete inhibition of gelatinolytic activity” value in data set [7] was determined as 100 µM. Further, the “Concentration above which LDH release was significantly reduced” value in [8] was “above 50 μM”. In addition, the “Protection of Col I chains from cleavage by ColQ1-FL” value in [10] (12.5–1.5 μM tested) is recorded as “inhibited the collagenase activity at all concentrations tested”.
